The results in this text go back to ChEMBL document CHEMBL1126012 (J Med Chem, 1992).

The target of this assay is Sodium-dependent dopamine transporter (Rattus norvegicus, UniProt P23977). In words: Inhibition of [3H]3-beta-(p-fluorophenyl)tropane-2beta-carboxylic acid methyl ester [3H]7a binding to Dopamine transporter of rat striatal membranes. The class given is cell membranes, Membrane.
Chain of Sodium-dependent dopamine transporter (P23977 whole entry): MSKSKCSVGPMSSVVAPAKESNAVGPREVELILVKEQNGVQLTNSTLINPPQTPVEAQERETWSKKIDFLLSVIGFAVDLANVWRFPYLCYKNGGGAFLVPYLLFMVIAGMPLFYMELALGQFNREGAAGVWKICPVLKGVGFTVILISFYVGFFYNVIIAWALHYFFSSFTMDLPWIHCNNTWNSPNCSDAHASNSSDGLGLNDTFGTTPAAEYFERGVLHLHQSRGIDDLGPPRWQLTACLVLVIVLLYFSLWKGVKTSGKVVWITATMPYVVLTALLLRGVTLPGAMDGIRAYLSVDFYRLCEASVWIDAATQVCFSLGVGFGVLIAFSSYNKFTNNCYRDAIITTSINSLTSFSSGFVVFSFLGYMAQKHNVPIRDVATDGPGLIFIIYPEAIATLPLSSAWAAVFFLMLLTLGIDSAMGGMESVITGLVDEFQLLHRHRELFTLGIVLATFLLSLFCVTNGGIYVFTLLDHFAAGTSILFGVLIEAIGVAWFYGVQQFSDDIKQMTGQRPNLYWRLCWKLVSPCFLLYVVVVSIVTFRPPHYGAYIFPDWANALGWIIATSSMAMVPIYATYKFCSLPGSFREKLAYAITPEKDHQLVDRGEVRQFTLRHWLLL
As to `CN1[C@@H]2CC[C@H]1C[C@H](OC(=O)c1ccccc1)C2`, the IC50 (commonly the concentration that inhibits the measured activity by half) came out at 21.2 µM.

The compound `COC(=O)C1C(OC(=O)c2ccccc2)C[C@H]2CCC1N2C(C)=O` (some centres undefined) returned a half-maximal inhibitory concentration (IC50) of 3.37 µM.

Turning to `COC(=O)C1C2CC[C@H](CC1OC(=O)c1ccccc1)N2` (some centres undefined), the IC50 is 0.303 µM. As to `COC(=O)C1C(OC(=O)c2ccccc2)C[C@H]2CCC1N2Cc1ccccc1` (some centres undefined), the IC50 is 0.668 µM. In the case of `COC(=O)C1C(OC(=O)c2ccccc2)C[C@H]2CCC1[N+]2(C)C` (some centres undefined), the 50% inhibitory concentration (IC50) is 10.7 µM.

As for `CN1CC2CC1C[C@@H](OC(=O)c1ccccc1)C2` (stereo in doubt; 4c), the IC50 came to 19.8 µM. Compound `CN1CC2CC1C[C@@H](OC(=O)c1ccccc1)C2` (stereo in doubt; 4d) returned an IC50 of 4.95 µM. Compared with the last compound, the IC50 is about 4-fold lower. `CN1CC2CC(OC(=O)c3ccccc3)CC1C2` (stereo in doubt; 4d-(+)) yielded an IC50 of 2.94 µM. `CN1CC2CC(OC(=O)c3ccccc3)CC1C2` (stereo in doubt; 4d-(-)) registered a half-maximal inhibitory concentration (IC50) of 2.85 µM. This IC50 and that of the compound before are within 1.5-fold of each other.
